Counter-ions that a name gives are not always drawn. Like-named read-outs stand apart in the source and are kept apart here.
Legend:
[1] = target: Photinus pyralis (firefly) luciferase (Photinus pyralis, UniProt P08659); assay: biochemical; type: biochemical
human CYP1A2 [2] = target: T1, human CYP1A2 (Homo sapiens, UniProt P05177)
T1 sequence (P05177 1-516): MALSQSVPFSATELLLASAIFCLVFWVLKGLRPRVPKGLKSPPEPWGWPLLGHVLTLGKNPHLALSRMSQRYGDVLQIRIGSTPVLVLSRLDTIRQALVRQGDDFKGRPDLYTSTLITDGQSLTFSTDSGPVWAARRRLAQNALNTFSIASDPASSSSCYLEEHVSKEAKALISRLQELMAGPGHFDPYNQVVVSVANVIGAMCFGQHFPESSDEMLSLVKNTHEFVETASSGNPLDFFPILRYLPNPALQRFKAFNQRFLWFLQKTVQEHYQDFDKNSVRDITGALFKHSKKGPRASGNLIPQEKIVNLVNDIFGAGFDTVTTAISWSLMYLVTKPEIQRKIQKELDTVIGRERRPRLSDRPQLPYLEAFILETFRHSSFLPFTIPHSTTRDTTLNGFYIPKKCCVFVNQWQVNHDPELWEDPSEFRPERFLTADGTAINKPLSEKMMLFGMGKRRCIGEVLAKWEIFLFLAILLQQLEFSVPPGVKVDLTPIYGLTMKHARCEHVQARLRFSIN

human CYP2C9 [3] = target: T2, human CYP2C9 (Homo sapiens, UniProt P11712)
T2 sequence (P11712 whole entry): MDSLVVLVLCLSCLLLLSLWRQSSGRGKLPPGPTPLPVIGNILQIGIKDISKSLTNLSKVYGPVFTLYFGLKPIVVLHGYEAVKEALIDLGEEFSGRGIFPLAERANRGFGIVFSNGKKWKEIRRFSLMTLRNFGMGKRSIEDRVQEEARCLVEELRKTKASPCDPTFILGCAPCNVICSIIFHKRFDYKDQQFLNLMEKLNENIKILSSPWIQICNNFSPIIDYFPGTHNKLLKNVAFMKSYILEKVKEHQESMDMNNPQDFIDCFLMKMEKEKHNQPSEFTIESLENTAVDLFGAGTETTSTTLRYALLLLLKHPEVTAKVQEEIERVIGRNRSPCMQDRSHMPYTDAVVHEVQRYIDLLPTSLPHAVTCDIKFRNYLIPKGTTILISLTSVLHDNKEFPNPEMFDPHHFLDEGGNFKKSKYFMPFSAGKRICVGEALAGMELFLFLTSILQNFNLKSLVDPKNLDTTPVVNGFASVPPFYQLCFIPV

human CYP2C19 [4] = target: T3, human CYP2C19 (Homo sapiens, UniProt P33261)
T3 sequence (P33261 whole entry): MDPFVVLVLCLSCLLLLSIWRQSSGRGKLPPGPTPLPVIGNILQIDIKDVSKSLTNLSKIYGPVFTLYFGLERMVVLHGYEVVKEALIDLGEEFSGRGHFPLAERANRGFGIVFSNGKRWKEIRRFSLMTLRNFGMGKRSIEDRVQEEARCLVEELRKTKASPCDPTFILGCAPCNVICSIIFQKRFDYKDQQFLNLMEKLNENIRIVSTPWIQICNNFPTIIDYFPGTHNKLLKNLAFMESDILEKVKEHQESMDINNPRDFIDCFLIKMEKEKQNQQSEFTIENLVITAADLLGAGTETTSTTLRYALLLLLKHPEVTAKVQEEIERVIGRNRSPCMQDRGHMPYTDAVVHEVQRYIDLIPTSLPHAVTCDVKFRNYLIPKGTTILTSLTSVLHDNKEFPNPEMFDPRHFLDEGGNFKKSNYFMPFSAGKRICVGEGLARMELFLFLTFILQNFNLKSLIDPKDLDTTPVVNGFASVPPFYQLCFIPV

human CYP2D6 = human CYP2D6 (Homo sapiens, UniProt P10635)
human CYP2D6, sequence (P10635 whole entry): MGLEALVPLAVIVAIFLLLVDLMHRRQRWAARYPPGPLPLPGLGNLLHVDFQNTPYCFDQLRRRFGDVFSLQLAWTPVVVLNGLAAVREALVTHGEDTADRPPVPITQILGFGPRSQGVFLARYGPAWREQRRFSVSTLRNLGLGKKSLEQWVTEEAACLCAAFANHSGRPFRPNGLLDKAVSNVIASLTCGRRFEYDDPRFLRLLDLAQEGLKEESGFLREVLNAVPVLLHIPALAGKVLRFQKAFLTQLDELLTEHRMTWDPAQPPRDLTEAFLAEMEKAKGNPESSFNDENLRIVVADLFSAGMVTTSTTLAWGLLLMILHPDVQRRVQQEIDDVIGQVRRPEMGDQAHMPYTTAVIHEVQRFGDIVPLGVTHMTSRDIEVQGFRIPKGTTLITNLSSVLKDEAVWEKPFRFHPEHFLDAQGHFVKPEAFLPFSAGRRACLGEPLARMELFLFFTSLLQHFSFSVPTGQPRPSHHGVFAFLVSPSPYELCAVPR

CYP3A4 = CYP3A4 (Homo sapiens, UniProt P08684)
CYP3A4, sequence (P08684 whole entry): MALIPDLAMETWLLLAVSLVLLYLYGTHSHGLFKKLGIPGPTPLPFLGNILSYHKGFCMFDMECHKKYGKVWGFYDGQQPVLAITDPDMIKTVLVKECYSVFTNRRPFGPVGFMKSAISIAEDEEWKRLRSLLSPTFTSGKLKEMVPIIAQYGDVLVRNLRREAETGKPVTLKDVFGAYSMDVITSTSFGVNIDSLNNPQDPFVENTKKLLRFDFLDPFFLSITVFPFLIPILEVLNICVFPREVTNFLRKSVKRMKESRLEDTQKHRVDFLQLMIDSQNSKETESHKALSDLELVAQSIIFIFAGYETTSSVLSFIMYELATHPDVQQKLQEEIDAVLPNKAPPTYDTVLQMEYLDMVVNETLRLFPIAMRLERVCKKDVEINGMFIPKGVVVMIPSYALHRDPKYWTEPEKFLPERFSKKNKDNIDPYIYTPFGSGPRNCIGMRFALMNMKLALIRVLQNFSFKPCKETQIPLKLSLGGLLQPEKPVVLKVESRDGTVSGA

human CYP1A2 [5] = target: T1, human CYP1A2; assay: biochemical
human CYP2C9 [6] = target: T2, human CYP2C9; assay: biochemical
human CYP2C19 [7] = target: T3, human CYP2C19; assay: biochemical
[8] = CYP2C9 IC50 (half-maximal inhibitory concentration)
[9] = CYP2C19 IC50 (half-maximal inhibitory concentration)

Photinus pyralis (firefly) luciferase, sequence (P08659 whole entry): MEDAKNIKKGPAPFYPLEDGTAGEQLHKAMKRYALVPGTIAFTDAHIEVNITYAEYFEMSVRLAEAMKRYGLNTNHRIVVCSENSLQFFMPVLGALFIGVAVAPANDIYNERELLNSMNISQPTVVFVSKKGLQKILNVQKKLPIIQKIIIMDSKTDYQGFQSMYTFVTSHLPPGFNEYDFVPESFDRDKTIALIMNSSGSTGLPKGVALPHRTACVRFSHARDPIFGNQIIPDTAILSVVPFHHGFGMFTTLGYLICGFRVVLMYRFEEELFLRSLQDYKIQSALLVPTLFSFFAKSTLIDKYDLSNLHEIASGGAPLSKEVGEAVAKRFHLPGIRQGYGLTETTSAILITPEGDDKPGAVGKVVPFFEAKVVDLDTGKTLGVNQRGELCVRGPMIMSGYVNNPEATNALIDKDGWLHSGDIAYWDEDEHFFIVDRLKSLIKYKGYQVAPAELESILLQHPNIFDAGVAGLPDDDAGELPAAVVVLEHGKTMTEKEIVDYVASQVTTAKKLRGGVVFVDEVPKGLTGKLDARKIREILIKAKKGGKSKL

GW473178E methyl benzene sulphonic acid
Luciferase IC50 (half-maximal inhibitory concentration) [1]: Inactive | CYP1A2 IC50 (half-maximal inhibitory concentration) (human CYP1A2 [2]): Inactive | IC50 (human CYP2C9 [3]): 5860 nM | IC50 (human CYP2C19 [4]): 46900 nM | IC50 (human CYP2D6): 23.1 µM | IC50 (CYP3A4): 800 nM

C[C@@H](NCCCc1cccc(C(F)(F)F)c1)c1cccc2ccccc12 [Cinacalcet hydrochloride]
Luciferase IC50 [1]: Inactive | IC50 (human CYP2D6; human): 0.05 µM | IC50 (human CYP1A2 [5]): 26.9 ± 8.25 µM | IC50 (human CYP2C9 [6]): 38.9 µM | IC50 (human CYP2C19 [7]): 10.8 ± 2.69 µM

C=CCOC(Cn1ccnc1)c1ccc(Cl)cc1Cl.O=S(=O)(O)O (stereo not drawn) [Imazalil sulfate]
Luciferase IC50 (half-maximal inhibitory concentration) [1]: Inactive | CYP2C9 Efficacy (in parenthesis) (human CYP2C9 [3]): 0.63 ± 0.18 (-107 ± 5) % | IC50 (human CYP2C9 [3]): 630 nM | CYP2C19 Efficacy (in parenthesis) (human CYP2C19 [4]): 0.22 ± 0.08 (-143 ± 13) % | IC50 (human CYP2C19 [4]): 220 nM | CYP2D6 Efficacy (in parenthesis) (human CYP2D6): 5.1 ± 0.35 (-106 ± 4) % | IC50 (human CYP2D6): 5.1 µM | CYP3A4 Efficacy (in parenthesis) (CYP3A4): 0.12 ± 0.02 (-91 ± 3) % | IC50 (CYP3A4): 120 nM

NS(=O)(=O)C(F)(F)C(F)(F)C(F)(F)C(F)(F)C(F)(F)C(F)(F)C(F)(F)C(F)(F)F [PFOSA]
Luciferase IC50 (half-maximal inhibitory concentration) [1]: Inactive | CYP1A2 IC50 (half-maximal inhibitory concentration) (human CYP1A2 [2]): Inactive | CYP2D6 IC50 (half-maximal inhibitory concentration) (human CYP2D6): Inactive | CYP3A4 IC50 (half-maximal inhibitory concentration) (CYP3A4): Inactive | IC50 (human CYP2C9 [6]; [8]): 0.71 µM | IC50 (human CYP2C19 [7]; [9]): 64.3 µM

C#Cc1ccc(-c2ccccc2F)cc1 [Fluretofene]
IC50 [1]: 25.8 µM | IC50 (human CYP1A2 [5]): 0.88 µM | IC50 (human CYP2C9 [6]): 16.1 µM | IC50 (human CYP2C19 [7]): 25.7 µM

O=c1c(-c2ccc(O)cc2)coc2cc(O)ccc12 [Daidzein]
IC50 [1]: 19.6 µM | CYP2D6 IC50 (half-maximal inhibitory concentration) (human CYP2D6): Inactive | IC50 (human CYP1A2 [5]; CYP1A2 IC50 (half-maximal inhibitory concentration)): 28.3 µM | IC50 (human CYP2C9 [6]; [8]): 0.36 µM | IC50 (human CYP2C19 [7]; [9]): 36.4 µM

CCC(C)n1ncn(-c2ccc(N3CCN(c4ccc(OCC5COC(Cn6cncn6)(c6ccc(Cl)cc6Cl)O5)cc4)CC3)cc2)c1=O (stereo not drawn) [Itraconazole]
Luciferase IC50 (half-maximal inhibitory concentration) [1]: Inactive | CYP1A2 IC50 (half-maximal inhibitory concentration) (human CYP1A2 [2]): Inactive | CYP2C9 Efficacy (in parenthesis) (human CYP2C9 [3]; human): 14.05 ± 3.21 (-81 ± 13) % | CYP2C19 Efficacy (in parenthesis) (human CYP2C19 [4]; human): 8.3 ± 4.22 (-53 ± 15) % | CYP2D6 IC50 (half-maximal inhibitory concentration) (human CYP2D6): Inactive | IC50 (human CYP2C9 [6]; [8]): 14 µM | IC50 (human CYP2C19 [7]; [9]): 8.3 µM

ClC1=C(Cl)C2(Cl)C3C4CC(C5OC45)C3C1(Cl)C2(Cl)Cl (stereo not drawn) [Endrin]
Luciferase IC50 [1]: Inactive | CYP2D6 IC50 (human CYP2D6): Inactive | IC50 (human CYP1A2 [5]; CYP1A2 IC50): 54 µM | IC50 (human CYP2C9 [6]; CYP2C9 IC50): 12.4 µM | IC50 (human CYP2C19 [7]; CYP2C19 IC50): 26.6 µM

CN(C)CCN(Cc1ccc(Cl)cc1)c1ccccn1.Cl [Chloropyramine hydrochloride]
Luciferase IC50 [1]: Inactive | CYP1A2 Efficacy (human CYP1A2 [2]): 20.13 ± 6.48 (-40 ± 3) % | CYP2C19 Efficacy (human CYP2C19 [4]): 7.51 ± 1.03 (-122 ± 9) % | CYP2D6 Efficacy (human CYP2D6): 0.23 ± 0.05 (-101 ± 4) % | CYP3A4 IC50 (CYP3A4): Inactive

CCOP(=S)(OCC)Oc1cc(C)nc(C(C)C)n1 [Diazinon]
Luciferase IC50 [1]: Inactive | CYP2D6 IC50 (human CYP2D6): Inactive | IC50 (human CYP1A2 [5]; CYP1A2 IC50): 7.13 µM | IC50 (human CYP2C9 [6]; CYP2C9 IC50): 1.99 µM | IC50 (human CYP2C19 [7]; CYP2C19 IC50): 0.44 µM

CCN(CC)C(=O)/C(C#N)=C/c1cc(O)c(O)c([N+](=O)[O-])c1 [Entacapone]
Luciferase IC50 (half-maximal inhibitory concentration) [1]: Inactive | CYP1A2 IC50 (half-maximal inhibitory concentration) (human CYP1A2 [2]): Inactive | CYP2C19 IC50 (half-maximal inhibitory concentration) (human CYP2C19 [4]): Inactive | CYP2D6 IC50 (half-maximal inhibitory concentration) (human CYP2D6): Inactive | CYP3A4 IC50 (half-maximal inhibitory concentration) (CYP3A4): Inactive | IC50 (human CYP2C9 [6]; [8]): 0.2 µM

CCCCCCCCCCCCCCCCCC(=O)O.OCCN(CCO)CCO [Triethanolamine stearate]
Luciferase Efficacy (in parenthesis) [1]: 74.82 ± 6.08 (-26 ± 14) % | IC50 ([1]; read-out: Luciferase IC50 (half-maximal inhibitory concentration)): 74.8 µM | CYP1A2 Efficacy (in parenthesis) (human CYP1A2 [2]): 3.98 ± 2.02 (-97 ± 4) % | IC50 (human CYP1A2 [2]): 3.98 µM | CYP2C9 Efficacy (in parenthesis) (human CYP2C9 [3]): 1.38 ± 0.34 (-98 ± 6) % | IC50 (human CYP2C9 [3]): 1380 nM | CYP2C19 Efficacy (in parenthesis) (human CYP2C19 [4]): 0.42 ± 0.18 (-127 ± 1) % | IC50 (human CYP2C19 [4]): 420 nM | CYP2D6 Efficacy (in parenthesis) (human CYP2D6): 35.34 ± 0 (-82 ± 6) % | IC50 (human CYP2D6): 35.3 µM

C[C@@H](Cc1ccccc1)NCc1ccccc1Cl.Cl [Clobenzorex hydrochloride]
Luciferase IC50 [1]: Inactive | CYP1A2 Efficacy (human CYP1A2 [2]): 15.49 ± 0 (-71 ± 4) % | CYP2C9 IC50 (human CYP2C9 [3]): Inactive | CYP2C19 Efficacy (human CYP2C19 [4]): 1.49 ± 0.1 (-137 ± 12) % | CYP2D6 Efficacy (human CYP2D6): 0.15 ± 0.03 (-111 ± 2) %
